Assay results reported in US10730878B2, “Fused quinoline compounds as PI3K/mTOR inhibitors” (ADVENCHEN PHARMACEUTICALS, LLC, priority 2015, dated 2020).

Molecular target: T1, mTor (Homo sapiens, UniProt P42345)
T1 construct: purchased Millipore/Merck KGA of Europe (panel screening service)
Assay: mTor kinase inhibition, % activity at 0.03 μM (kinases panel screening)
Type: biochemical
Conditions: 0.03 μM compound
Excerpt: In vitro kinase inhibition activities included Pi3k and mTor activities can be tested with Millipore/Merck KGA of Europe in their kinases panel screening. Animal antitumor activity testing can be conducted by various cancer xenograft models for a compound of formula I. […]

Row | Molecule | mTor % activity @0.03 μM [%]
1 | N-(5-{16-[4-(1-cyano-1-methylethyl)phenyl]-8,11,13,14,16-pentaazatetracyclo[8.6.0.0^2,^7.0^11,^1^5]-hexadeca-1(10), 2,4,6,8,12,14-heptaen-4-yl)}pyridin-2-yl)-2-(dimethylamino)acetamide | 0
2 | Cc1nnc2n(-c3ccc(C(C)(C)C#N)cc3)c3c4cc(-c5cnc6[nH]ccc6c5)ccc4ncc3n12 [2-methyl-2-[4-(12-methyl-4-{1H-pyrrolo[2,3-b]pyridin-5-yl}-8,11,13,14,16-pentaazatetra-cyclo[8.6.0.0^2,^7.0^11,^1^5]hexadeca-1(10),2,4,6,8,12,14-heptaen-16-yl)phenyl]propanenitrile] | 15
3 | CC(C)(C#N)c1ccc(-n2c3c4cc(-c5cncnc5)ccc4ncc3n3cnnc23)cc1 [5-pyrimidine; H; CH3, CH3; CN, 2-methyl-2-{4-[4-(pyrimidin-5-yl)-8,11,13,14,16-pentaazatetracyclo[8.6.0.0^2,^7.0^11,^1^5]hexadeca-1(10),2,4,6,8,12,14-heptaen-16-yl]phenyl}propanenitrile] | 64
4 | Cc1nnc2n(-c3ccc(C(C)(C)C)cc3)c3c4cc(-c5cccnc5)ccc4ncc3n12 [3-pyridine; CH3; CH3, CH3; CH3, 16-(4-tert-butylphenyl)-12-methyl-4-(pyridin-3-yl)-8,11,13,14,16-pentaazatetracyclo-[8.6.0.0^2,^7.0^11,^1^5]hexadec-1(10),2,4,6,8,12,14-heptaene] | 88
5 | N-{5-[16-(4-tert-butylphenyl)-8,11,13,14,16-pentaazatetracyclo[8.6.0.0^2,^7.0^11,^1^5]-hexadeca-1(10),2,4,6,8,12,14-heptaen-4-yl]pyridin-2-yl}-2-(methylamino)acetamide | 8
6 | 5-[16-(4-tert-butylphenyl)-12-ethyl-8,11,13,14,16-pentaazatetracyclo[8.6.0.0^2,^7.0^11,^1^5]hexadeca-1(10),2,4,6,8,12,14-heptaen-4-yl]-N-[2-(pyrrolidin-1-yl)ethyl]pyridin-2-amine | 84
7 | N-{5-[16-(4-tert-butylphenyl)-12-ethyl-8,11,13,14,16-pentaazatetracyclo[8.6.0.0^2,^7.0^11,^1^5]-hexadeca-1(10), 2,4,6,8,12,14-heptaen-4-yl]pyridin-2-yl}-2-(pyrrolidin-1-yl)acetamide | 91
8 | N-(5-{16-[4-(1-cyano-1-methylethyl)phenyl]-8,11,13,14,16-pentaazatetracyclo[8.6.0.0^2,^7.0^11,^1^5]-hexadeca-1(10),2,4,6,8,12,14-heptaen-4-yl)}pyridin-2-yl)-2-(pyrrolidin-1-yl)acetamide | −2
9 | N-{5-[16-(4-tert-butylphenyl)-12-ethyl-8,11,13,14,16-pentaazatetracyclo[8.6.0.0^2,^7.0^11,^1^5]-hexadeca-(10),2,4,6,8,12,14-heptaen-4-yl]pyridin-2-yl}-2-(morpholin-4-yl)acetamide | 92
10 | CC(C)(C)c1ccc(-n2c3c4cc(-c5cnc6ccccc6c5)ccc4ncc3n3cnnc23)cc1 [3-quinoline; H; CH3, CH3; CH3, 16-(4-tert-butylphenyl)-4-(quinolin-3-yl)-8,11,13,14,16-pentaazatetracyclo[8.6.0.0^2,^7.0^11,^1^5]-hexadeca-1(10), 2,4,6,8,12,14-heptaene] | 22
11 | 5-[16-(4-tert-butylphenyl)-12-ethyl-8,11,13,14,16-pentaazatetracyclo[8.6.0.0^2,^7.0^11,^1^5]hexadeca-1(10),2,4,6,8,12,14-heptaen-4-yl]-N-methylpyridin-2-amine | 51
12 | Cc1nnc2n(-c3ccc(C(C)(C)C)cc3)c3c4cc(-c5ccc(N)nc5)ccc4ncc3n12 [5-pyridin-2-amine; CH3; CH3, CH3; CH3, 5-[16-(4-tert-butylphenyl)-12-methyl-8,11,13,14,16-pentaazatetracyclo[8.6.0.0^2,^7.0^11,^1^5]-hexadeca-1(10), 2,4,6,8,12,14-heptaen-4-yl]pyridin-2-amine] | 34
13 | C#CC(C)(C)c1ccc(-n2c3c4cc(-c5ccc(OC)nc5)ccc4ncc3n3c(CC)nnc23)cc1 [12-ethyl-4-(6-methoxypyridin-3-yl)-16-[4-(2-methylbut-3-yn-2-yl)phenyl]-8,11,13,14,16-pentaazatetracyclo[8.6.0.0^2,^7.0^11,^1^5]hexadeca-1(10),2,4,6,8,12,14-heptaene] | 69
14 | CC(C)(C#N)c1ccc(-n2c3c4cc(-c5ccnc6[nH]ccc56)ccc4ncc3n3cnnc23)cc1 [2-methyl-2-[4-(4-{1H-pyrrolo[2,3-b]pyridin-4-yl}-8,11,13,14,16-pentaazatetracyclo-[8.6.0.0^2,^7.0^11,^1^5]hexadeca-1(10),2,4,6,8,12,14-heptaen-16-yl)phenyl]propanenitrile] | 70
15 | CC(C)(C)c1ccc(-n2c3c4cc(-c5cccnc5)ccc4ncc3n3cnnc23)cc1 [3-pyridine; H; CH3, CH3; CH3, 16-(4-tert-butylphenyl)-4-(pyridin-3-yl)-8,11,13,14,16-pentaazatetracyclo[8.6.0.0^2,^7.0^11,^1^5]-hexadeca-1(10), 2,4,6,8,12,14-heptaene] | −4
16 | N-(5-{16-[4-(1-cyano-1-methylethyl)phenyl]-8,11,13,14,16-pentaazatetracyclo[8.6.0.0^2,^7.0^11,^1^5]-hexadeca-1(10), 2,4,6,8,12,14-heptaen-4-yl)}pyridin-2-yl)-2-(4-methylpiperazin-1-yl)acetamide | 8
17 | 2-amino-N-(5-{16-[4-(1-cyano-1-methylethyl)phenyl]-8,11,13,14,16-pentaazatetra-cyclo[8.6.0.0^2,^7.0^11,^1^5]hexadeca-1(10), 2,4,6,8,12,14-heptaen-4-yl)}pyridin-2-yl)acetamide | 8
18 | CC(=O)Nc1ccc(-c2ccc3ncc4c(c3c2)n(-c2ccc(C(C)(C)C#N)cc2)c2nnc(C)n42)cn1 [N-(5-{16-[4-(1-cyano-1-methylethyl)phenyl]-12-methyl-8,11,13,14,16-pentaazatetracyclo-[8.6.0.0^2,^7.0^11,^1^5]hexadeca-1(10),2,4,6,8,12,14-heptaen-4-yl}pyridin-2-yl)acetamide] | 74
19 | Cc1nnc2n(-c3ccc(C(C)(C)C#N)cc3)c3c4cc(-c5ccc(N)nc5)ccc4ncc3n12 [5-pyridin-2-amine; CH3; CH3, CH3; CN] | 64
20 | CC(C)(C)c1ccc(-n2c3c4cc(-c5cncnc5)ccc4ncc3n3cnnc23)cc1 [5-pyrimidine; H; CH3, CH3; CH3, 16-(4-tert-butylphenyl)-4-(pyrimidin-5-yl)-8,11,13,14,16-pentaazatetracyclo[8.6.0.0^2,^7.0^11,^1^5]-hexadeca-1(10), 2,4,6,8,12,14-heptaene] | 39
21 | N-(5-{16-[4-(1-cyano-1-methylethyl)phenyl]-8,11,13,14,16-pentaazatetracyclo[8.6.0.0^2,^7.0^11,^1^5]-hexadeca-1(10), 2,4,6,8,12,14-heptaen-4-yl)}pyridin-2-yl)-2-(4-oxopiperidin-1-yl)acetamide | 54
22 | N-(5-{16-[4-(1-cyano-1-methylethyl)phenyl]-8,11,13,14,16-pentaazatetracyclo[8.6.0.0^2,^7.0^11,^1^5]-hexadeca-1(10), 2,4,6,8,12,14-heptaen-4-yl)}pyridin-2-yl)-2-(thian-4-ylamino)acetamide | 103
23 | 5-[16-(4-tert-butylphenyl)-12-ethyl-8,11,13,14,16-pentaazatetracyclo[8.6.0.0^2,^7.0^11,^1^5]hexadeca-1(10),2,4,6,8,12,14-heptaen-4-yl]-N-[2-(morpholin-4-yl)ethyl]pyridin-2-amine | 102
24 | Cc1nnc2n(-c3ccc(C(C)(C)C)cc3)c3c4cc(-c5cncnc5)ccc4ncc3n12 [5-pyrimidine; CH3; CH3, CH3; CH3, 16-(4-tert-butylphenyl)-12-methyl-4-(pyrimidin-5-yl)-8,11,13,14,16-pentaazatetracyclo-[8.6.0.0^2,^7.0^11,^1^5]hexadeca-1(10), 2,4,6,8,12,14-heptaene] | 104
25 | CCc1nnc2n(-c3ccc(C(C)(C)C#N)cc3)c3c4cc(-c5ccc(NC(C)=O)nc5)ccc4ncc3n12 [N-(5-{(16-[4-(1-cyano-1-methylethyl)phenyl]-12-ethyl-8,11,13,14,16-pentaazatetracyclo-[8.6.0.0^2,^7.0^11,^1^5]hexadeca-1(10), 2,4,6,8,12,14-heptaen-4-yl)}pyridin-2-yl)acetamide] | 72
26 | N-{5-[16-(4-tert-butylphenyl)-12-ethyl-8,11,13,14,16-pentaazatetracyclo[8.6.0.0^2,^7.0^11,^1^5]-hexadeca-1(10), 2,4,6,8,12,14-heptaen-4-yl]pyridin-2-yl}-2-(methylamino)acetamide | 40
27 | CCc1nnc2n(-c3ccc(C(C)(C)C#N)cc3)c3c4cc(-c5cnc6[nH]ccc6c5)ccc4ncc3n12 [2-[4-(12-ethyl-4-{(1H-pyrrolo[2,3-b]pyridin-5-yl}-8,11,13,14,16-pentaazatetracyclo-[8.6.0.0^2,^7.0^11,^1^5]hexadec-1(10),2,4,6,8,12,14-heptaen-16-yl)phenyl]-2-methylpropanenitrile] | 29
28 | COc1ccc(-c2ccc3ncc4c(c3c2)n(-c2ccc(C(C)(C)C)cc2)c2nnc(C)n42)cn1 [2-methoxy-5-pyridine; CH3; CH3, CH3; CH3, 16-(4-tert-butylphenyl)-4-(6-methoxypyridin-3-yl)-12-methyl-8,11,13,14,16-pentaazatetra-cyclo[8.6.0.0^2,^7.0^11,^1^5]hexadeca-1(10), 2,4,6,8,12,14-heptaene] | 97
